Assays:
TRPV1 [1] = biological target: T1, TRPV1 (Rattus norvegicus, UniProt O35433); assay: capsaicin-induced 45Ca2+-uptake in TRPV1ε-NIH3T3 cells; assay type: cell-based; conditions: for Hill Slope ± SEM: enhancement of 45Ca2+-uptake in presence of 2 µM capsaicin; for enhancing activity (in words): in presence of 2 µM capsaicin
TRPV1 [2] = biological target: T1, TRPV1; assay: capsaicin-induced 45Ca2+-uptake in primary dorsal root ganglion; assay type: cell-based; conditions: for Hill Slope ± SEM / enhancing activity (in words): primary DRG cells; for Hill Slope ± SEM: ~0.5 µM capsaicin, single assay run in quadruplicate wells; for enhancing activity (in words): in presence of capsaicin
TRPV1 [3] = biological target: T1, TRPV1; assay: intracellular Ca2+ imaging; assay type: cell-based
[4] = biological target: human A3 adenosine receptor; conditions: read-out: Ki value at the A3 receptor; ref [30]; cited from earlier work

T1 sequence (O35433 whole entry): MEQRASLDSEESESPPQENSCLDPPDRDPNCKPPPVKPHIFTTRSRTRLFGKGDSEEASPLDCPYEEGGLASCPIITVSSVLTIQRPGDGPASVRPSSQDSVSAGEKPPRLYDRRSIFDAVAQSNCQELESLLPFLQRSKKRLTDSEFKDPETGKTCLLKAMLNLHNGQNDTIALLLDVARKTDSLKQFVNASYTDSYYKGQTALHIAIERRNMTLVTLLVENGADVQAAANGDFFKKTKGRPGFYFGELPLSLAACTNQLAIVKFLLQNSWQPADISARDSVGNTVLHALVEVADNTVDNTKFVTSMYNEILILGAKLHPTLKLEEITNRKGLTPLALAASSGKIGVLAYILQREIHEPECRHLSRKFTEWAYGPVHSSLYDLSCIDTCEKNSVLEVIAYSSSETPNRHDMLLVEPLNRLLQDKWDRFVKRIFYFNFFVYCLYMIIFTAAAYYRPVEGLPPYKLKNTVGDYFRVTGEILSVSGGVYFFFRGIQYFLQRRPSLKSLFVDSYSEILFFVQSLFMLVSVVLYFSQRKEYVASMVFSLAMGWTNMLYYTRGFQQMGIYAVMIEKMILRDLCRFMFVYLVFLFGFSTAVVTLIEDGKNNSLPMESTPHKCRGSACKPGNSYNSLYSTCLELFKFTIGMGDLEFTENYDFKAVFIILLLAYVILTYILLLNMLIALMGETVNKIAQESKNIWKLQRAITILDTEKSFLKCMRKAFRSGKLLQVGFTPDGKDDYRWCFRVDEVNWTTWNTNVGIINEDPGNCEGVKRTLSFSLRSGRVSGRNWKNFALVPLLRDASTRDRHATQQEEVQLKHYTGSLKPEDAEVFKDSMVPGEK

| Compound | Hill Slope ± SEM (TRPV1 [1]) | enhancing activity (in words) (TRPV1 [1]) | also measured |
| --- | --- | --- | --- |
| CCOC(=O)C1=C(C)NC(c2cccc(Cl)c2)=C(C(=O)OCC)C1CC (racemic) [Compound 9, 3,5-Diethyl-2-methyl-4-ethyl-6-(3-chlorophenyl)-1,4-(±)-dihydropyridine-3,5-dicarboxylate] | 1.45 ± 0.28 |  | Hill Slope ± SEM (TRPV1 [2]): 2.24 ± 0.53 |
| CCOC(=O)C1=C(C)NC(c2cccc(F)c2)=C(C(=O)OCC)C1CC (racemic) [Compound 10, 3,5-Diethyl-2-methyl-4-ethyl-6-(3-fluorophenyl)-1,4-(±)-dihydropyridine-3,5-dicarboxylate] | 1.98 ± 0.30 |  | EC50 (TRPV1 [2]): 20.5 ± 1.1 µM; Hill Slope ± SEM (TRPV1 [2]): 2.64 ± 0.59 |
| CCOC(=O)C1=C(C)NC(c2ccc(F)cc2)=C(C(=O)OCC)C1CC (racemic) [Compound 11, 3,5-Diethyl-2-methyl-4-ethyl-6-(4-fluorophenyl)-1,4-(±)-dihydropyridine-3,5-dicarboxylate] | 1.86 ± 0.42 |  | EC50 (TRPV1 [2]): 15.7 ± 1.3 µM; Hill Slope ± SEM (TRPV1 [2]): 2.01 ± 0.77 |
| CCOC(=O)C1=C(c2cccc(F)c2)NC(C)=C(C(=O)SCC)C1CC (racemic) [Compound 14, 3-Ethylthio-5-ethyl-2-methyl-4-ethyl-6-(3-fluorophenyl)-1,4-(±)-dihydropyridine-3,5-dicarboxylate] | 1.59 ± 0.33 | strong, dosedependent effects |  |
| CCOC(=O)C1=C(c2ccc(F)cc2)NC(C)=C(C(=O)SCC)C1CC (racemic) [Compound 15, 3-Thioethyl-5-ethyl-2-methyl-4-ethyl-6-(4-fluorophenyl)-1,4-(±)-dihydropyridine-3,5-dicarboxylate] | 1.82 ± 0.33 |  |  |
| CCOC(=O)C1=C(C2CCCCC2)NC(C)=C(C(=O)SCC)C1CC (racemic) [Compound 17, 3-Ethylthio-5-ethyl-2-methyl-4-ethyl-6-cyclohexyl-1,4-(±)-dihydropyridine-3,5-dicarboxylate] |  | inactive |  |
| CCCC1C(C(=O)SCCc2ccccc2)=C(C)NC(c2ccccc2)=C1C(=O)OCC (racemic) [Compound 26, 3-(2-Phenylethylthio)-5-ethyl-2-methyl-4-propyl-6-phenyl-1,4-(±)-dihydropyridine-3,5-dicarboxylate] | 1.14 ± 0.32 |  |  |
| CCOC(=O)C1=C(c2ccc(F)cc2)NC(C)=C(C(=O)SCCc2ccccc2)C1CC (racemic) [Compound 29, 3-(2-Phenylethylthio)-5-ethyl-2-methyl-4-ethyl-6-(4-fluorophenyl)-1,4-(±)-dihydropyridine-3,5-dicarboxylate] | 1.18 ± 0.25 | slightly active |  |
| CCOC(=O)C1=C(c2ccc([N+](=O)[O-])cc2)NC(C)=C(C(=O)SCc2ccccc2)C1CC (racemic) [Compound 31] |  | neutral | enhancing activity (in words) (TRPV1 [2]): inactive |
| CCOC(=O)C1=C(c2ccccc2)N=C(C)/C(=C(/O)SCC)C1CC (stereo not shown) [Compound 12] | 1.55 ± 0.17 |  |  |
| CCCC1C(C(=O)OCC)=C(c2ccccc2)N=C(C)/C1=C(/O)SCC (stereo not shown) [Compound 18] | 1.38 ± 0.23 | strong, dosedependent effects | EC50 (TRPV1 [2]): 10.5 ± 1.1 µM; Hill Slope ± SEM (TRPV1 [2]): 1.47 ± 0.16 |
| CCOC(=O)C1=C(c2ccccc2)N=C(C)/C(=C(/O)SCCOC)C1CC (stereo not shown) [Compound 23] | 1.79 ± 0.17 | strong, dosedependent effects | fold increase in calcium influx (TRPV1 [1]; 2 µM capsaicin): 5.3 fold; peak ratio (340/380, normalized to baseline) (TRPV1 [3]; 200 nM capsaicin in the presence of 10 µM 23, 30 sec, 69 cells): 1.701±0.001 |
| CCOC(=O)C1=C(C)NC(c2ccccc2)=C(C(=O)OCc2ccccc2)C1C#Cc1ccccc1 (stereo not shown) [MRS1191, 1,4-dihydro-2-methyl-6-phenyl-4-(phenylethynyl)-3,5-pyridinedicarboxylic acid, 3-ethyl 5-(phenylmethyl) ester, reference compound] |  | no enhancing effect |  |
| CO/C(O)=C1\C(C)=NC(C)=C([N+](=O)[O-])[C@H]1c1ccccc1C(F)(F)F [S(–)-Bay K 8644, reference compound] |  | not enhancers | enhancing activity (in words) (TRPV1 [2]): not enhancers |
| COc1cc(CNC(=O)CCCC/C=C/C(C)C)ccc1O [capsaicin, reference compound] |  |  | ED100 for capsaicin activation of TRPV1 (TRPV1 [1]; pH 7.5): ~ 2 µM; peak ratio (340/380, normalized to baseline) (TRPV1 [3]; 200 nM capsaicin alone, 30 sec, 98 cells): 1.518±0.001 |
| COC(=O)C1=C(C)NC(C)=C(C(=O)OCCN(C)Cc2ccccc2)C1c1cccc([N+](=O)[O-])c1 (stereo not shown) [nicardipine, reference compound] |  | not enhancers | Ki [4]: 3.25 µM; enhancing activity (in words) (TRPV1 [2]): not enhancers |

Reference: publication PMC2613801 (Bioorganic & medicinal chemistry, 2008)
